Measurements published in BigSolDB 2.1.

CC[n+]1ccccc1.F[P-](F)(F)(F)(F)F
solubility (mole fraction)
Details	in ethanol	in water
278.15 K	8.4e-05	0.000474
283.15 K	0.000121	0.000581
288.15 K	0.000171	0.000711
293.15 K	0.000224	0.000857
298.15 K	0.000324	0.00105
303.15 K	0.000561	0.0013
308.15 K	0.00061	0.00159
313.15 K	0.000718	0.00186
318.15 K	0.000976	0.00216
323.15 K	0.0015	0.0026
328.15 K	0.00189	0.00325
333.15 K	0.00252	0.00387
338.15 K	0.00308	0.00454
343.15 K	0.00389	0.00535
